The results in this text go back to patent publication US20200032271A1, “COMBINATION THERAPY WITH LIPOSOMAL ANTISENSE OLIGONUCLEOTIDES” (Bio-Path Holdings, Inc., priority 2016, published 2020).

[PEt] = P-ethoxy (ethyl phosphotriester) internucleoside linkage

In one data set the test system is ALL-1. Description: Inhibition of proliferation of leukemic cell lines by BP1001. It is filed as cell-based, human. The note with it: 5 days. The source says: (§1) BP1001 is a neutral liposome incorporated with the nuclease-resistant, hydrophobic P-ethoxy antisense oligos targeted to Grb2 mRNA. In preclinical studies, BP1001 was effective in inducing growth inhibition and decreasing ERK1,2 and Akt phosphorylation in imatinib-sensitive and imatinib-resistant CML cell lines.

Another data set relates to BV173. Described as above. In kind it is cell-based, human. Particulars: 5 days.
Excerpt: as §1

Data set [1] concerns HL60 (Ph-negative, Bcr-Abl negative). The data set is described as above. The note with it: [BP1001] 0-12 μM, 5 days. In kind it is cell-based, human.
Excerpt: as §1

Another data set relates to K562. The data set is described as above. It is filed as cell-based, human. Particulars: 4 days.
Excerpt: as §1

The nature of data set [2]: Plasma pharmacokinetics of Grb2 antisense oligo in patients. Particulars: human, in vivo. The protocol: Pharmacokinetic (PK) analysis was performed on plasma samples collected from refractory/relapsed patients diagnosed with AML receiving BP1001 (60 mg/m^2)+LDAC or receiving BP1001 (90 mg/m^2)+LDAC.
Blood samples for measurement of Grb2 antisense oligo concentrations were collected from patients in cohorts 7 and 8, at predose, 1, 2, 4, 6, 8, 24, 72 h post start-of-infusion (SOI). Urine samples for measurement of BP1001 concentrations were also collected from patients in cohorts 7 and 8, at start of dose-4 h, 4-8 h postdose, and 8-24 h postdose. PK blood samples were processed to plasma and analyzed using a validated method (Charles River Laboratories, Montreal, Canada) with a lower limit of quantitation (LLOQ; 0.5 ng/mL). Urine samples were analyzed using a validated method (Charles River Laboratories, Montreal, Canada) with a LLOQ of 1.00 ng/mL.
PK parameters were estimated using Phoenix pharmacokinetic software (Certara). A non-compartmental approach consistent with the IV infusion route of administration was used for parameter estimation, using an estimated infusion time of 2.5 h. All parameters were generated from Grb2 antisense oligo individual concentrations in plasma from Day 1 of Cycle 1, whenever practical. […] Parameters were estimated using nominal sampling times relative to the start of infusion. The area under the concentration vs. time curve (AUC) was calculated using the linear trapezoidal method with linear interpolation. The slope of the terminal elimination phase was determined using log linear regression on the unweighted concentration data.

In the case of “BP1001: liposome-incorporated P-ethoxy antisense oligodeoxynucleotide (5′-ATATTTGGCGATGGCTTC-3′, SEQ ID NO: 1) specific to grb2 mRNA, in neutral DOPC liposomes (DNA, all [PEt], methylation of C not given here; incorporated in neutral DOPC liposomes)”, the IC50 (usually the concentration that gives 50% inhibition) with ALL-1 amounted to 4 µM; in the data set with BV173, 8 µM; in the data set on K562, 8 µM. Moreover, the Decrease in viability came out at 100% with ALL-1 ([BP1001] 0-6 μM), 70% with BV173 ([BP1001] 0-10 μM), 0% in data set [1] and 80% in the data set on K562 ([BP1001] 0-12 μM). Besides, the Tmax in data set [2] (60 mg/m2) and in data set [2] (90 mg/m2) was 1 h throughout. The values for the t1/2 in data set [2] (60 mg/m2) and in data set [2] (90 mg/m2) were 29.6 ± 8.1 h and 11.8 ± 5.4 h, respectively.
